The values below come from patent US8298328B2, “Amorphous metal salt for facilitating the handling property of portland cements and dental applications thereof” (Taipei Medical University, priority 2008, dated 2012).

Data set [1] is described as follows: Crystal form by wide-angle X-ray diffraction (XRD). Format: physicochemical. The note with it: XRD of powder. Here is the method:
The crystal form of the CLG powder prepared above is determined by wide-angle x-ray diffraction (XRD). First, 1.00 g of CLG powder was placed in a sample carrier, and the powder filling was pressed by a slide. Then, the sample was placed on an X-ray diffractometer (MaxRC, Rigaku, Japan), and X-ray diffraction was performed by using Kα radiation (λ=1.541838A) at scan rate of 10°/min and 20 scanning angle from 5° to 60°. The peaks of X-ray diffraction data were analyzed in accordance with the Joint Committee on Powder Diffraction Standards (JCPDS).

The nature of data set [2]: Water solubility of the divalent metal salt powder. The note with it: 25° C., dried powder.
For data set [3] the following is noted: filtrate after reaction with CaO, before drying.
Method: After mixing and stirring for 1 hour, the solution was filtered, and the filtrate was collected.

On to `O.O.O=S(=O)([O-])[O-].[Ca+2]` [Comparative Example 1, Calcium Sulfate Dehydrate, reference compound], for which the Crystal form entry in data set [1] was “Crystalline”.

Consider `CC(O)C(=O)[O-].CC(O)C(=O)[O-].[Ca+2]` (stereo not drawn) [Comparative Example 3, Calcium Lactate, reference compound], for which the Crystal form result is “Crystalline” in data set [1] and “crystalline” in data set [1] (listed as CL).

For `CC(O)C(=O)[O-].O=C([O-])[C@H](O)[C@@H](O)[C@H](O)[C@H](O)CO.[Ca+2]` [Example 1, Calcium Lactate Gluconate], the “Solubility (water solubility)” value in data set [2] is given as 35.7~41.0 g/100 ml; in data set [2] (listed as CLG), 35.7˜41.0 g/100 ml. Further, the values for the Crystal form result in data set [1] and in data set [1] (listed as CLG) were “Amorphous” and “amorphous”, respectively. The “pH value of the filtrate solution” value in data set [3] was 9.8.

In the case of `O=C([O-])[C@H](O)[C@@H](O)[C@H](O)[C@H](O)CO.O=S(=O)([O-])O.[Ca+2]` [Example 3, Calcium Sulfate Gluconate], the “Solubility (water solubility)” value is on record as 30.1~31.7 g/100 ml in data set [2] and 30.1˜31.7 g/100 ml in data set [2] (listed as CSG). Also, the values for the Crystal form result in data set [1] and in data set [1] (listed as CSG) were “Amorphous” and “amorphous”, respectively. The “pH value of the filtrate solution” value in data set [3] was 9.3.

Take “Calcium Gluconate [Comparative Example 2, reference compound]”: the figures for the Crystal form entry in data set [1] and in data set [1] (listed as CG) were “Crystalline” and “crystalline”, respectively.

In the case of Calcium Lactate Sulfate [Example 2], the Crystal form result is “Amorphous” in data set [1] and “amorphous” in data set [1] (listed as CLS). Further, the “pH value of the filtrate solution” value in data set [3] was determined as 9.7.
